# In patent publication US4734280A, “Treatment or prevention of PAF Acether-induced maladies” (priority 1984, dated 1988):
# Where two headings read alike, the source gives them in different places.
# Assays:
# Sprague-Dowley rats = assay: Cutaneous vascular hyperpermeability induced by PAF Acether in the rat; assay type: in vivo; conditions: 1 mg/kg IV; for PAF Acether induced wheal, Surface: PAF Acether 25 ng intradermal, 30 mn; for PAF Acether induced wheal, Surface / PAF Acether induced wheal, Coloration OD: p < 0.001; for PAF Acether induced wheal, Coloration OD: optical density at 620 nm; for PAF Acether induced wheal, Coloration % decrease / PAF Acether induced wheal, Surface % decrease: vs control
# Protocol: Method: Intradermal injection of 25 ng of PAF Acether in the dorsal region of the rat with simultaneous IV injection of Evans blue dye (60 mg/kg/5 ml) induces vascular hyperpermeability and wheals formation. (for details see Basran GS, Page CP, Paul W and Morley J-Cromoglycate inhibits responses to platelet-activating factor (PAF Acether) in man: an alternative mode of action for DSCG in asthma-Eur. J. Pharma. (1983) 86 143-144).
# These wheals were measured (surface in mm^2) at the inner side of the skin 30 mn after the injections and were taken off, put in 4 ml of formamide, incubated at 65° C. during 24 h in order to extract the dye and measure their coloration (optical density at 620 nm).
# Groups of 6 Sprague-Dowley rats weighing 200 g were used and each rat received intradermal injections in two sites of the back. The experiment was performed in comparison with a reference compound, D 600 (methoxy verapamil), a calcium-blocker agent.
# Treatments: Tested compounds were administered by IV route injected once simultaneously with the dye.
# Hartley guinea-pig = assay: PAF Acether-induced bronchoconstriction in the anesthetized guinea-pig; assay type: in vivo; conditions: 1 mg/kg IV; for % of bronchoconstriction: 5 minutes before PAF Acether 60 ng/kg IV, % of maximal bronchoconstriction, average of 10 animals; for % of inhibition (bronchoconstriction): vs solvent in the same batch
# Protocol: Method: (For details, see B. B. VARGAFTIG, J. LEFORT, F. WAL, M. CHIGNARD and M. C. MEDEIROS-Non-steroidal anti-inflammatory drugs of combined with anti-histamine and anti-serotonin agents interfere with the bronchial and platelet effects of PAF Acether-Enr. J. Pharm. (1982) 82 121-130). Male Hartley guinea-pig (400-500 g) were anesthetized with urethane 2 g/kg Ip., tracheotomised and ventilated by mean of a respiratory pump: 70-80 strokes mn, stroke volume 5 ml, a pneumothorax was done to abolish spontaneous respiration. The right jugular vein was catherized and used for injections.
# The initial resistance was kept constant at 10 cm H2 O pressure according to the method of Konzett and Rossler and the overflowed airway was measured with a bronchospasm transducer UGO BASILE connected to a UGO BASILE recorder "GEMINI". Bronchial sensitivity of the animal was checked with acetylcholine (10-40 ng kg^-1 IV) and after constant response was obtained, there were injected, IV, first the propylene glycol and, five minutes later, 60 ng/kg of PAF Acether, which gave the control bronchoconstriction expressed as % of maximal bronchoconstriction given by clamping off the trachea. 40 minutes later, the tested compounds were administered by IV injection and, 5 minutes later, 60 ng/kg of PAF Acether by the same route. This experimentation was conducted on three batches of each 10 animals: first batch for Ginkgolide A, second one for Ginkgolide B and last one for Ginkgolide C, all at the 1 mg/kg dose. The figures of the following table are the average values for the 10 animals of each batch.
# human PRP = assay: Inhibition of PAF Acether-induced PA, human PRP in vitro; assay type: cell-based; conditions: PAF Acether 100 nM, read-out: IC Doses (PAF Acether-induced PA, human PRP)
# Protocol: (§1) The Inhibition of PAF Acether-induced PA has been studied on rabbit plasma-rich platelets (PRP). Two doses of PAF Acether were used (2.5 nM and 5 nM). The tested compound was added to the medium 3 minutes before PAF Acether and aggregation was followed by monitoring changes in electrical impedance (Whole-Blood aggregometer-chrono-Log); kadsurenone was simultaneously tested as reference compound and the IC50 molar doses of Ginkgolides A, B, C and M and of kadsurenone on PAF Acether-induced rabbit PA (PRP) have been calculated.
# The inhibition of PAF Acether-induced PA has been studied on human PRP. The same protocol was used as for rabbit hereinabove.
# [1] = test system: guinea-pig lung parenchymal strip; assay: PAF Acether-induced contraction of superfused lung parenchymal strip; conditions: for inhibition at 30 µg/mL: Cavia porcellus, read-out: change of PAF Acether (3 ng)-induced contraction; for Contraction induced by PAF Acether (3 ng) (Arbitrary Units): preventive superfusion 30 μg/ml, average of 10 determinations
# [2] = test system: rabbit plasma-rich platelets (PRP); assay: Aggregation induced by other known aggregants (ADP, thrombine, calcium ionophore A 23187, collagen, adrenaline); assay type: cell-based; conditions: calcium ionophore A 23187, collagen and adrenaline
# human platelets = assay: Ex vivo PAF Acether-induced PA in man after IV administration; conditions: IV 25 mg, PAF Acether 100 nM
# Protocol: […] DMSO).
# The same protocol described hereinabove for rabbit was used in man with only one dose of each Ginkgolide (IV 25 mg) and two blood takes (at 0.5 h and 1 h).
# PAF-Acether receptor = target: T1, PAF-Acether receptor (Oryctolagus cuniculus, UniProt G1TEI7); assay: Competition with 3H-PAF Acether binding, rabbit membrane platelet preparation; conditions: read-out: reduction of 3H-PAF Acether binding
# T1 construct: using a rabbit membrane platelet preparation; from tissue; host or cells: rabbit platelets (membrane preparation)
# Text: The competition of the alternative binding of either ^3 H-PAF Acether or one of the Ginkgolides was evidenced by radioactive determinations using a rabbit membrane platelet preparation. (100% control=^3 H-PAF Acether alone).
# [3] = test system: rabbit plasma-rich platelets (PRP); assay: Inhibition of PAF Acether-induced PA, rabbit PRP in vitro; assay type: cell-based; conditions: Oryctolagus cuniculus, Platelet, average of 10 assays, read-out: IC50 doses on PAF Acether-induced rabbit PA (PRP)
# Protocol: as §1
# The results obtained are presented in the following table (average values for 10 assays for each dose) and FIG. 1: […]
# New-Zealand rabbits = assay: PAF Acether-induced shock in the rabbit; assay type: in vivo; conditions: for Extravasation (O.D.): 2 mg/kg IV perfusion, 30 mn, optical density at 590 nm, average of 10 animals; for Behaviour: behavioural modifications / Behaviour: deaths: 2 mg/kg IV, PAF Acether 2 and 4 nmol/kg, 10 animals per batch
# Protocol: Treatment: Tested compounds (Gingkolides A, B and C) or vehicle were perfused in the ear vein in 45 ml NaCl 0.9% for 1 hour before PAF Acether injection. Vehicle consisted of 1.5 ml of propylene glycol completed to 45 ml by isotonic NaCl buffer; Ginkgolides were administered at the dose of 2 mg/kg IV; the figures reported in the following table are the average values of the 10 animals of each batch.
# [4] = test system: guinea-pig mesenteric artery; assay: Opto-electronic follow-up of PAF Acether-induced thrombus, guinea-pig mesenteric artery; assay type: in vivo
# Text: In this experimental study, 20 guinea-pigs were used. […] Briefly summarized, this method consists in the dissection over a distance of 2 to 3 mm of a branch of the mesenteric artery following gently extraction of a loop of small intestine. By transillumination, the image of this arterial segment is projected onto a set of 30 light-depending resistances (LDR) arranged in two columns of 15 elements each. An LDR element has the property to change its internal resistance as a function of a variation of light intensity. Each LDR is connected into its own Wheatstone bridge, and the changes in light intensity due to thrombus formation will be recorded as variations in electrical potentials and registered as such via a multiplexing device.
# In the present investigation, several discriminating parameters are recorded: (a) the t1 interval or the lag period (this is the time interval between the beginning of the PAF Acether superfusion and the first signs of thrombus formation; (b) the td interval is the duration of the thrombotic phenomenon; (c) the O(t) curve indicates the number of LDR elements covered by the thrombus image; (d) the D(t) curve represents during each 30×1/9×10^-2 sec interval the greatest potential deviation on one of the LDR elements covered by the thrombus image; (e) the T(t) curve represents the summation of the potentials registered on the LDR elements during a time interval of 30×1/9×10^-2 sec the TTV(t) curve results from the integration of the T(t) values in function of time; (f) mD, mT, and mO correspond to the maximal values registered on, respectively, the D(t), T(t), and O(t) curves; (g) TTV is the maximal value of the TTV(t) curve, whereas TVM is the value of this curve up to the point where mT is reached.
# In a first series of experiments (10 animals) the effect of local superfusion with PAF Acether (10^-4 M) is investigated.
# In a second series of experiments (10 animals) the effects of Ginkgolide B and of kadsurenone have been compared preventively and curatively.
# T1 sequence (G1TEI7 1-342): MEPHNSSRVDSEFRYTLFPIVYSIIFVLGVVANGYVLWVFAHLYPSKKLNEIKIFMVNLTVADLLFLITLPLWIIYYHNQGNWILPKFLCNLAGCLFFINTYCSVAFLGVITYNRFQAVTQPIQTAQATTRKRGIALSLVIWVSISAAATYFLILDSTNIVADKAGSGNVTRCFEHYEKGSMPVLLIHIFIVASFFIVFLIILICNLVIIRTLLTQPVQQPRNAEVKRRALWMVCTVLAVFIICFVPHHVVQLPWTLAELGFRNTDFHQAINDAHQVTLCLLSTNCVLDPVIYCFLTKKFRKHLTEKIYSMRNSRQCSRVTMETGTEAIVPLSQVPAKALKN
Compound,"PAF Acether induced wheal, Surface (Sprague-Dowley rats) [mm^2]","PAF Acether induced wheal, Coloration OD (Sprague-Dowley rats) [OD]","PAF Acether induced wheal, Coloration % decrease (Sprague-Dowley rats) [%]","PAF Acether induced wheal, Surface % decrease (Sprague-Dowley rats) [%]",% of bronchoconstriction (Hartley guinea-pig) [%],% of inhibition (bronchoconstriction) (Hartley guinea-pig) [%],IC50 (human PRP) [µM],Contraction induced by PAF Acether (3 ng) (Arbitrary Units) [1] [Arbitrary Units],effect against aggregation induced by other known aggregants [2],% of aggregation with respect to control (human platelets; blood take at 0.5 h) [%],% of aggregation with respect to control (human platelets; blood take at 1.0 h) [%],inhibition at 10 µM (PAF-Acether receptor) [%],IC50 ([3]; PAF Acether 2.5 nM) [µM],IC50 ([3]; PAF Acether 5 nM) [µM],Extravasation (O.D.) (New-Zealand rabbits; PAF Acether 2 nmol/kg),Extravasation (O.D.) (New-Zealand rabbits; PAF Acether 4 nmol/kg),Behaviour: behavioural modifications (New-Zealand rabbits),Behaviour: deaths (New-Zealand rabbits),further results
"COc1ccc(CCN(C)CCCC(C#N)(c2cc(OC)c(OC)c(OC)c2)C(C)C)cc1OC (stereo not shown) [D 600, methoxy verapamil, reference compound]",62.6,0.664,-42,-39,,,,,,,,,,,,,,,deaths/6 (Sprague-Dowley rats; group of 6 rats): two
C[C@@H]1C(=O)O[C@H]2C[C@@]34[C@H]5C[C@@H](C(C)(C)C)[C@]36[C@@H](OC(=O)[C@@H]6O)O[C@@]4(C(=O)O5)[C@]21O [Ginkgolide A],64.3,0.631,-45,-37,13.3,84.1,90,10.30 ± 2.33,totally ineffective,0,5.7,67,8.32,13.2,0.903,0.881,No behavioural,No death,"inhibition at 30 µg/mL ([1]; 30 μg/ml, p < 0.001): 72.8%"
CC1C(=O)OC2C(O)C34C5OC(=O)C3(OC3OC(=O)C(O)C34C(C(C)(C)C)C5O)C12O (stereo not shown) [Ginkgolide C],68.1,0.701,-39,-34,17.0,78.6,150,11.08 ± 2.42,totally ineffective,0,10.6,83,15.3,25.4,0.910,0.875,No behavioural,No death,inhibition at 30 µg/mL [1]: 70.8%
CC1C(=O)OC2C1C13OC4OC(=O)C(O)C45C(C(C)(C)C)C(O)C(OC1=O)C35C2O (stereo not shown) [Ginkgolide M],,,,,,,,,totally ineffective,,,,122,20.2,,,,,inhibition at 100 µM (PAF-Acether receptor): 79%
"C=CCC1=C[C@@]2(OC)C(=CC1=O)O[C@H](c1ccc(OC)c(OC)c1)[C@H]2C [Kadsurenone, kadsurenone, reference compound]",,,,,,,130,,,,,,9.94,14,,,,,thrombus formation when superfused with PAF Acether (preventive) ([4]; PAF Acether superfusion): no thrombus appeared; time for disappearance of pre-formed thrombus (curative) ([4]; PAF Acether-induced thrombus): about 4.30 minutes
